This is an account of results in patent US20090209535A1, “6-ETHER/THIOETHER-PURINES AS TOPOISOMERASE II CATALYTIC INHIBITORS AND THEIR USE IN THERAPY” (TOPOTARGET A/S, priority 2005, published 2009).

For data set [1], the system named is human SCLC OC—NYH cells. Nature of the data set: Clonogenic assay, antagonism of etoposide-induced cytotoxicity. Format: cell-based. The following applies: 20 μM etoposide, one hour; 20 min pre-exposure.
Experimental: Cells were then plated in 0.3% agar in 6 cm petri dishes with sheep red blood cells as feeder layer in triplicate, and were incubated under the same conditions as described above. Plates were counted after 3 weeks.
20 μM etoposide was then added, and the cells were incubated for one hour. Next, the drugs were washed out and the cells were plated and counted after three weeks as described herein.
Data set [2] deals with topoisomerase II α (Homo sapiens, UniProt P11388). The experiment in a line: Topoisomerase II retention on DNA/streptavidin beads (salt-stable complex). In kind it is biochemical. On the set-up: made in house; host or cells: yeast (over-expressing yeast cells). As to the method: An assay capable of measuring non-covalent complexes of topoisomerase II on closed circular DNA was performed as described in Morris et al., 2000, with modifications. When performing six reactions, 60 μL M280 streptavidin coated bead (Dynal A/S, Oslo, Norway) slurry corresponding to 600 μg beads was transferred to a 1.5 mL tube that was then placed in a Dynal MPC-E (magnetic particle concentrator) rack (Dynal A/S, Oslo, Norway) for 1 to 2 minutes until the beads had settled on the tube wall. The beads were then washed twice in the DNA binding solution supplied with the kilobase binding kit (Dynal A/S, Oslo, Norway) by repeating this step. Finally, the beads were re-suspended in 250 μL DNA binding solution. A preparation of biotin labelled plasmid DNA containing a 5-kb super coiled circular DNA molecule carrying 8 successive PNA (Peptide Nucleic Acid) linked biotin labels at one known position (pGeneGrip biotin blank vector, Gene Therapy Systems Inc., San Diego, Calif., USA) was made by mixing 220 μL distilled water and 30 μL biotinylated DNA. After mixing the beads and the DNA preparation, the sample was left overnight at room temperature under gentle agitation to assure optimal formation of the DynaBeads DNA complex. Next, the complex was washed twice in 480 μL wash buffer (10 mM TRIS-HCL, pH 7.5, 2 M NaCl, 1 mM EDTA), once in distilled water, and once in topoisomerase reaction buffer (10 mM TRIS-HCl, pH 7.9, 50 mM NaCl, 50 mM KCl, 5 mM MgCl2, 1 mM EDTA, […] BSA). Then, the beads were re-suspended in 600 μL topoisomerase II buffer and divided into 6 tubes. 100 μL reactions containing plasmid DNA coated DynaBeads, topoisomerase II buffer, 2 μg purified human topoisomerase […] and drugs were incubated for 30 minutes at 37° C. When included, ATP was present at 1 mM. […]
Sequence of topoisomerase II α (P11388 whole entry): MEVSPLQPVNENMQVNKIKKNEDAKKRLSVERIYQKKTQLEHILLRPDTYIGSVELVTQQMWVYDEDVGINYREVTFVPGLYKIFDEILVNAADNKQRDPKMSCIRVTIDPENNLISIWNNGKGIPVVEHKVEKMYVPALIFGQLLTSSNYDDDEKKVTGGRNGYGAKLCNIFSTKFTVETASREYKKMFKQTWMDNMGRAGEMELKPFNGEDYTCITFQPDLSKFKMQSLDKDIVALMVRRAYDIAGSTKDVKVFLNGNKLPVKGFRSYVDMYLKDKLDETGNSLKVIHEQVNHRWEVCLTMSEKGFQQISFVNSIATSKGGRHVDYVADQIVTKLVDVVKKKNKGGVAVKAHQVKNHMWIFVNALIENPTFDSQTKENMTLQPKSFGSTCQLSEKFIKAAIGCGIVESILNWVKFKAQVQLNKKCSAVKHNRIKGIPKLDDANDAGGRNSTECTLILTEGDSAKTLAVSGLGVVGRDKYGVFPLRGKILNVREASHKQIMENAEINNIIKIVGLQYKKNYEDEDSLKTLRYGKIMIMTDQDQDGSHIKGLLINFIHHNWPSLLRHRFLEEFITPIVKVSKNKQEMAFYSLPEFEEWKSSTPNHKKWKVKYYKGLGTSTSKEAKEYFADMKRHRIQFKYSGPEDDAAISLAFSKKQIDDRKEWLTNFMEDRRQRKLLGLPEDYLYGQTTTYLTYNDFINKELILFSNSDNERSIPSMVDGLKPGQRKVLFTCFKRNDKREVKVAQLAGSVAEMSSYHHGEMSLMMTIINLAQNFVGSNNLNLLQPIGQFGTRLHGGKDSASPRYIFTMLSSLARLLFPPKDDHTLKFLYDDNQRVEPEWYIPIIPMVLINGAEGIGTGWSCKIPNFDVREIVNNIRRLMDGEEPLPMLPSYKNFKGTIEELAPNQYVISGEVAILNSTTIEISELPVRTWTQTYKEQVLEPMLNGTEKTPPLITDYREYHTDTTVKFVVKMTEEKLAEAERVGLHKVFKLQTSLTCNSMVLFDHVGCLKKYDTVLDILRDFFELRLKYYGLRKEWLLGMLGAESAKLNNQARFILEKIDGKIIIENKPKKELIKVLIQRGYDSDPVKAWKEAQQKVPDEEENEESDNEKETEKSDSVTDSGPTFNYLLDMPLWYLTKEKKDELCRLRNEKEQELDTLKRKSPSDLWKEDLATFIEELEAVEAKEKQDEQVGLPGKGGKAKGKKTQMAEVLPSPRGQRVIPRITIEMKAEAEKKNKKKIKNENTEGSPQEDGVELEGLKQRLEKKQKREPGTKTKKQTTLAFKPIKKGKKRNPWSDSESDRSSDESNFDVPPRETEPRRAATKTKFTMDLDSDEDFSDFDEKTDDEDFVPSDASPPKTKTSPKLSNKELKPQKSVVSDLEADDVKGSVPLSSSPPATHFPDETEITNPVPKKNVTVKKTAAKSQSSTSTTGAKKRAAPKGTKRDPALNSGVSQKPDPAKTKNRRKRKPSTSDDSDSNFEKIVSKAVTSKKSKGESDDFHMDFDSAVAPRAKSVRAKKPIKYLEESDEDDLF
FIG. 7 describes the results of studies of the ability of NSC 35866 to stabilise a salt-stable complex of human topoisomerase II α on covalently closed circular DNA. Retention of salt-stable (to 2 M KCl) complexes of human topoisomerase II α on circular DNA attached to magnetic beads via biotin-streptavidin linkage was determined by eluting retained protein by adding running buffer containing 4% SDS followed by heating to 100° C. for 10 minutes. The amount of human topoisomerase II α protein retained was then determined by running the samples on 7% SDS-PAGE gels followed by straining with GelCode Blue Strain Reagent (Pierce, Rockford, Ill., USA): Lane 1, no drug; Lane 2, 200 μM ICRF-187; Lane 3, 30 μM NSC 35866; Lane 4, 100 μM NSC 35866; Lane 5, 300 μM NSC 35866; Lane 6, 1000 μM NSC 35866; Lane K, 2 μg human topoisomerase II α. […]

For data set [3], the system named is human SCLC NCI-H69 cells. The experiment in a line: Protection from etoposide-induced cytotoxicity, NCI-H69. In kind it is cell-based.
Experimental: Human small cell lung cancer (SCLC) OC—NYH (de Leij et al., 1985) and NCI-H69 cells (Cuttitta et al., 1981) were grown in RPMI-1640 medium supplemented with 10% fetal calf serum, 100 U/mL penicillin-streptomycin at 37° C. in a humidified atmosphere containing 5% CO2 in the dark.
Clonogenic assay was performed essentially as described in Jensen et al., 1993. […] Cells were then plated in 0.3% agar in 6 cm petri dishes with sheep red blood cells as feeder layer in triplicate, and were incubated under the same conditions as described above. Plates were counted after 3 weeks.
Data set [4] concerns human SCLC OC—NYH cells. The experiment in a line: Alkaline elution assay (DNA breaks). Format: cell-based. As to the method: Alkaline elution assay was performed as described in Kohn et al., 1976 with modifications as described in Sehested et al., 1998. Briefly, to assess the ability of NSC 35866 to protect against etoposide-induced DNA breaks, cells were incubated with increasing concentrations of NSC 35866 for 10 minutes, before 3 μM etoposide was added to the samples. The cells were then co-incubated with 3 μM etoposide along with the same concentrations of NSC 35866 for 60 minutes. Some samples contained no etoposide in order to assess whether NSC 35866 induced DNA breaks by itself. After incubation with drug, cells were lysed and the DNA fragments eluted. DNA in the experimental OC—NYH cells was metabolically labelled by ^14C-thymidine incorporation while DNA in the internal control L1210 cells was metabolically labelled by ^3H-thymidine incorporation.
FIG. 9 describes the results of studies of the ability of NSC 35866 to antagonise DNA breaks induced by etoposide in human SCLC OC—NYH cells in a dose dependent manner. Alkaline DNA elution was used to detect DNA fragmentation induced by 3 μM etoposide in the presence of increasing concentrations of NSC 35866 as described herein. H202 treated mouse leukemic L1210 cells were used as internal control for DNA fragmentation. The DNA of the experimental OC—NYH cells was ^14C-labelled while the DNA of the L1210 cells was 3H-labelled.

On to `Nc1nc(SCCc2ccccc2)c2nc[nH]c2n1` [NSC 35866, 2-amino-6-(phenylethylthio)-purine], for which, in data set [1], the “reduction of etoposide-induced cytotoxicity” value is listed as “up to 50 fold”. For the same compound, the “retention of topoisomerase II on DNA beads after 2 M KCl wash, in words” value in data set [2] (30, 100, 300 and 1000 μM, with ATP) is recorded as “traps human topoisomerase II α as a salt-stable complex on circular closed DNA in a dose-dependent manner”. Also, the “retention of topoisomerase II on DNA beads, in words” value in data set [2] (in the absence of ATP) was “only at 300 and 1000 μM”. Further, the “protection from etoposide-induced cytotoxicity, in words” value in data set [3] is “capable of protecting”. Besides, the “effect on DNA breaks induced by 3 μM etoposide, in words” value is reported as “no detectable effect” in data set [4] (30 μM, repeated assay); “no detectable effect” in data set [4] (100 μM); “no detectable effect” in data set [4] (100 μM, repeated assay); “partly antagonised” in data set [4] (300 μM, repeated assay); “partly antagonised” in data set [4] (500 μM); “completely antagonised” in data set [4] (1000 μM). Further, the “DNA breaks induced by the drug alone, in words” value in data set [4] (concentrations up to 1000 μM, no etoposide) is reported as “does not induce detectable levels of DNA breaks”.
